Legend:
human GPR120 [1] = molecular target: T1, human GPR120 (Homo sapiens, UniProt Q5NUL3); test: Human GPR120 Calcium-Release Assay (aequorin luminescence, CHO-K1 cells); assay type: cell-based; conditions: pEC50=−log(EC50) from curve fit; short variant of human GPR120 in CHO-K1 with Gα16 and apoaequorin; read-out: Ca2+ pEC50 (converted)
T1 construct: expressed in transfected cells; host or cells: CHO-K1 coexpressing Gα16 and mitochondrial apoaequorin
T1 sequence (Q5NUL3 1-361): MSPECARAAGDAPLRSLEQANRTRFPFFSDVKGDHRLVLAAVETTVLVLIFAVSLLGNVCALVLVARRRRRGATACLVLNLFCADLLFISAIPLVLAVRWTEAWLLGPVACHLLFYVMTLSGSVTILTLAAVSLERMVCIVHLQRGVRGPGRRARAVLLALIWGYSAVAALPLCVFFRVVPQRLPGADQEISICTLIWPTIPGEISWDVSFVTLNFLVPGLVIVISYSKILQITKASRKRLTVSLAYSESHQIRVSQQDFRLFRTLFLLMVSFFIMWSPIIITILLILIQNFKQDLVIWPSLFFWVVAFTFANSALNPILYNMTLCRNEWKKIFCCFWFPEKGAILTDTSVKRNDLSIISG
Description: This in vitro assay tests compounds' ability to activate heterologously expressed human GPR120 via G-protein coupling leading to generation of inositol 1,4,5-triphosphate and mobilization of intracellular calcium. This functional cellular assay is based on the luminescence of mitochondrial aequorin following intracellular Ca^2+ release. Aequorin is a photoprotein isolated from the jellyfish Aequorea victoria. The active protein is formed in the presence of molecular oxygen from apoaequorin and its cofactor coelenterazine. Binding of Ca^2+ to the active protein induces a conformational change, resulting in oxidation of coelenterazine and subsequent blue luminescence.
The short variant of the human GPR120 receptor (GenBank accession Number AAI01176) was stably expressed in a CHO-K1 cell line coexpressing Gα16 and mitochondrial apoaequorin.
Cells were grown to mid-log phase in culture media without antibiotics, were detached with PBS/EDTA, centrifuged and resuspended in assay buffer (DMEM-F12 medium with 15 mM HEPES pH 7.0 and 0.1% protease free BSA) at a concentration of 10^6 cells/mL. Cells were incubated at room temperature for at least 4 hours with 5 μM coelenterazine h.
Test compounds were dissolved in 100% DMSO to a concentration of 20 mM to provide stock solutions. Serial dilutions were performed from stock solutions in 100% DMSO to obtain intermediate concentrations 200-fold higher than the concentrations to be tested. Each sample was diluted 100-fold into assay buffer. 50 μl of these compound solutions were dispensed into each well of 96-well assay plates. The final concentration of compounds tested in the assay ranged from 5 nM to 100 μM. α-Linolenic acid was used as a reference compound. Each test was performed in duplicate.
To start the assay, 50 μl of cell suspension were added to each well of the assay plate. The resulting luminescence was recorded using a Hamamatsu Functional Drug Screening System 6000 (FDSS 6000), and raw data were expressed as relative light units (RLU).
(§1) To determine agonist potencies (EC50 values), non-linear least-squares curve fits of the raw data (RLU) were performed in the GraphPad Prism software package, using the 4-parameter model with variable Hill Slope:
Reported below in Table 1 are pEC50 values (pEC50=−log(EC50) from curve fit) for representative compounds of Formula I in this assay, Ca2+pEC50.

human GPR120 [2] = molecular target: T2, human GPR120 (Homo sapiens, UniProt Q5NUL3); test: GPR120 β-Arrestin Recruitment Assay (PathHunter, CHO-K1 cells); assay type: cell-based; conditions: pEC50=−log(EC50) from curve fit, CHO-K1 cells, 90 min incubation; for EC50: read-out: β-Arr pEC50 (converted)
T2 construct: host or cells: CHO-K1
Description: This in vitro assay tests compounds' ability to activate intracellular signaling via 3-Arrestin recruitment to heterologously expressed human GPR120. This functional cellular assay utilizes enzyme fragment complementation with β-galactosidlase (β-gal) as a functional reporter (DiscoveRx PathlHunter® β-Arrestin assay platform). The human (GPR120 receptor (GenBank accession Number NM_181745) was fused in frame with the small enzyme fragment ProLink™ and co-expressed in CHO-K1 cells with a fusion protein of β-Arrestin 2 and the larger, N-terminal deletion mutant of β-gal. Activation by a GPR120 agonist stimulates binding of β-arrestin to the ProLink-tagged GPCR and forces complementation of the two enzyme fragments, resulting in the formation of an active β-gal enzyme. This interaction leads to an increase in enzyme activity that can be measured using chemiluminescent PathHunter® Detection Reagents.
One day prior to the assay, cells were seeded in a total volume of 20 μl of growth medium into white walled 384-well microplates and incubated at 37° C./5% CO2 overnight. On the day of the assay, growth medium was removed and 20 μl assay buffer (HBSS+10 mM HEPES+0.1% heat-inactivated BSA) were added to each well.
Test compounds were dissolved in 100% DMSO to a concentration of 10 mM to provide stock solutions. Serial dilutions were performed from stock solutions into assay buffer to obtain intermediate concentrations of 5-fold higher than the concentrations to be tested. 5 μl of the 5× compound solutions were added to the cells and the assay plates were incubated at 37° C. for 90 minutes. The final concentration of compounds tested in the assay ranged from 1.5 nM to 100 μM. Following incubation, 12.5 μl of PathHunter® detection reagent were added to each well, and plates were incubated at room temperature for 60 minutes. Chemiluminescence was read using an EnVision plate reader (PerkinElmer), raw data were expressed as relative light units (RLU).
as §1
T2 sequence (Q5NUL3 1-377 isoform Q5NUL3-1): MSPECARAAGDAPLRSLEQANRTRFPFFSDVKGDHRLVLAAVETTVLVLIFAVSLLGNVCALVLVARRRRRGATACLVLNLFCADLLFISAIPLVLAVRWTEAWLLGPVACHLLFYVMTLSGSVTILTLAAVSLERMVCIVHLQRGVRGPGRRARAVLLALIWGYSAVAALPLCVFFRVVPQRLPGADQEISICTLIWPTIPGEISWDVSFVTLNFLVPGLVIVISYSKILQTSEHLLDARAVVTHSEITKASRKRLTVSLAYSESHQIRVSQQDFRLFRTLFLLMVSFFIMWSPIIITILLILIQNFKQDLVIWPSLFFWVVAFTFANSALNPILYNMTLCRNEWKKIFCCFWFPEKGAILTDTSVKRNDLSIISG
T2 sequence (P32121 whole entry partner): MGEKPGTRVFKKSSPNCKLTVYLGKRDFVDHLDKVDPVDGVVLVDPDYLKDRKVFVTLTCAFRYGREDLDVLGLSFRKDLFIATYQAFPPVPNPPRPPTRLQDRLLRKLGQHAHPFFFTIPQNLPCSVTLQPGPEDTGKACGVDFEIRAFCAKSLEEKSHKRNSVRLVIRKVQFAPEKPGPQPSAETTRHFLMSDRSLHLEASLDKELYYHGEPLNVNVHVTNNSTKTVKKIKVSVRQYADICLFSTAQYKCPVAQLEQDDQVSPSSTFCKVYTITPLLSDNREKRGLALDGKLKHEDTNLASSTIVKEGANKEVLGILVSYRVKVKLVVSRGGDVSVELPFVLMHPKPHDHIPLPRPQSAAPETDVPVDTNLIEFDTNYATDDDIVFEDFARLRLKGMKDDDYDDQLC
Reported below in Table 1 are pEC50 values (pEC50=−log(EC50) from curve fit) for compounds of Formula I in this assay, β-Arr pEC50 Alternatively, percent activation at a single concentration is reported.

| Structure (SMILES) | EC50 (human GPR120 [1]) | EC50 (human GPR120 [2]) | β-Arr pEC50 (human GPR120 [2]) |
| --- | --- | --- | --- |
| O=S1(=O)c2ccccc2CN1c1ccnc(Oc2cccnc2)n1 [Compound 1] | 7.94 µM | – | – |
| O=S1(=O)c2ccccc2CN1c1ccnc(Oc2ccccc2)n1 [Compound 16] | 1.26 µM | 6.31 µM | – |
| Cc1cncc(Oc2nccc(N3Cc4ccccc4S3(=O)=O)n2)c1 [Compound 19] | 0.794 µM | 5.01 µM | – |
| O=S1(=O)c2ccccc2CN1c1ccnc(Oc2ccccc2Cl)n1 [Compound 20] | 3.98 µM | 6.31 µM | – |
| O=S1(=O)c2ccccc2CN1c1ccnc(Oc2ccc(Cl)cc2)n1 [Compound 21] | 0.501 µM | > 7.94 µM | – |
| O=S1(=O)c2ccccc2CN1c1ccnc(Oc2cccc(Cl)c2)n1 [Compound 22] | > 100 µM | 1.58 µM | – |
| O=S1(=O)c2ccccc2CN1c1ccnc(Oc2ccc(Cl)c(Cl)c2)n1 [Compound 33] | > 100 µM | – | – |
| Cc1ccc(Oc2nccc(N3Cc4ccccc4S3(=O)=O)n2)cc1Cl [Compound 34] | 0.2 µM | 1.58 µM | – |
| Cc1cc(Oc2nccc(N3Cc4ccccc4S3(=O)=O)n2)ccc1Cl [Compound 35] | > 100 µM | 1.58 µM | – |
| O=S1(=O)c2ccccc2CN1c1ccnc(Oc2ccc(OC(F)(F)F)cc2Cl)n1 [Compound 36] | 7.94 µM | 0.631 µM | – |
| O=S1(=O)c2ccccc2CN1c1ccnc(Oc2cccc(F)c2)n1 [Compound 37] | 0.2 µM | 1 µM | – |
| O=S1(=O)c2ccccc2CN1c1ccnc(Oc2ccc(Br)cc2)n1 [Compound 41] | 0.794 µM | 2.51 µM | – |
| O=S1(=O)c2ccccc2CN1c1ccnc(Oc2ccc(F)cc2)n1 [Compound 42] | 0.316 µM | 1 µM | – |
| COc1ccc(Oc2nccc(N3Cc4ccccc4S3(=O)=O)n2)cc1 [Compound 44] | 1.58 µM | > 10 µM | – |
| O=S1(=O)c2ccccc2CN1c1ccnc(Oc2ccc(OCc3ccccc3)cc2)n1 [Compound 45] | > 100 µM | 1.58 µM | – |
| COc1cncc(Oc2nccc(N3Cc4ccccc4S3(=O)=O)n2)c1 [Compound 50] | 6.31 µM | 5.01 µM | – |
| O=S1(=O)c2ccccc2CN1c1ccnc(Oc2cncc(Cl)c2)n1 [Compound 51] | 1 µM | – | – |
| COc1cc(N2Cc3ccccc3S2(=O)=O)nc(OC2CC(F)(F)C2)n1 [Compound 93] | 0.631 µM | – | – |
| O=S1(=O)c2ccccc2CN1c1cccc(OC2CCC2)n1 [Compound 126] | – | > 31.6 µM | – |

More lines, now with the values ahead:

| EC50 (human GPR120 [1]) | EC50 (human GPR120 [2]) | β-Arr pEC50 (human GPR120 [2]) | Structure (SMILES) |
| --- | --- | --- | --- |
| – | > 31.6 µM | – | O=C1c2ncccc2CN1c1cccc(Oc2cccnc2)n1 [Compound 127] |
| – | > 31.6 µM | – | O=C1c2ccccc2CN1c1cccc(Oc2cccc(Cl)c2)n1 [Compound 130] |
| – | > 31.6 µM | – | COc1ccc2c(c1)S(=O)(=O)N(c1cccc(Oc3cccnc3)n1)C2 [Compound 132] |
| – | > 31.6 µM | – | COc1ccc2c(c1)CN(c1cccc(Oc3cccnc3)n1)S2(=O)=O [Compound 133] |
| – | > 10 µM | – | Cc1cc(Oc2cccnc2)nc(N2Cc3cccnc3C2=O)c1 [Compound 135] |
| – | 0.631 µM | – | Cc1cc(Oc2cccnc2)nc(N2Cc3ccccc3S2(=O)=O)c1 [Compound 136] |
| – | 2.51 µM | – | CNC(=O)c1cc(Oc2ccc(Cl)cc2)nc(N2Cc3ccccc3S2(=O)=O)c1 [Compound 137] |
| – | 3.16 µM | – | CC(=O)Nc1cc(Oc2ccc(Cl)cc2)nc(N2Cc3ccccc3S2(=O)=O)c1 [Compound 138] |
| – | > 10 µM | – | CN(C)C(=O)c1cc(Oc2ccc(Cl)cc2)nc(N2Cc3ccccc3S2(=O)=O)c1 [Compound 139] |
| – | 1 µM | – | O=S1(=O)c2ccccc2CN1c1cc(C(F)(F)F)cc(Oc2cccnc2)n1 [Compound 140] |
| – | 6.31 µM | – | O=S1(=O)c2ccccc2CN1c1cc(C(F)(F)F)cc(OC2CC(F)(F)C2)n1 [Compound 141] |
| – | – | <4.5 | Cc1nc(Oc2ccc(Cl)cc2)nc(N2Cc3ccccc3S2(=O)=O)n1 [Compound 143] |
| – | 2 µM | – | Cc1nc(Oc2ccc(Cl)cc2)nc(N2Cc3ccccc3S2(=O)=O)n1 [Compound 144] |
| – | 15.8 µM | – | O=S1(=O)c2ccccc2CN1c1ncnc(Oc2cccnc2)n1 [Compound 146] |
